# Experimental data published in patent US20150297482A1, “MALODOR COUNTERACTING COMPOSITIONS AND METHOD FOR THEIR USE TO COUNTERACT SWEAT MALODOR” (FIRMENICH SA, priority 2009, published 2015).
# Tested on: Staphylococcus haemolyticus CNCM I-4170
# Assay: Protocol A: in-vitro malodor inhibition (free thiol groups from Cys-Gly precursor, DTNB absorbance at 412 nm)
# Type: cell-based
# From the text: Further details of such a screening and % inhibition measurement and definition are described further on in this application. The precursor used, which may also be in the form of a human sweat sample, typically generates malodorant sulfur compounds when acted upon by the Staphylococcus haemolyticus cells, or by a β-lyase present in such cells. The malodor inhibition coefficient, as defined herein, reflects the % of reduction in free SH groups generated in the above-mentioned medium by the enzymatic activity of the bacterial cells when in presence of the MOC ingredient or MOC composition in question, as compared to the same measurement in their absence. […] Alternatively, the bacterial cells can be replaced by a β-lyase present in said cells. […] Detection of enzymatic activity inhibition is measured via the sulfur groups, namely thiol groups, freed from the precursor bacterial transformation, by comparison with the reference experiment in the absence of the respective MOC ingredient, said sulfur groups being detected by interaction with DTNB, a known chemical detector system for thiols. The reaction can be monitored by absorbance reading at 412 nm. The procedure can be performed indifferently with either a purified or semi-purified enzyme or intact bacterial cells, as in the case described here. Malodor inhibition coefficient is measured as a function of the percentage of free thiol groups in the medium, over time, by an absorbance method, and reflects the reduction in malodor obtained in the presence of the MOC ingredients and compositions. […] At the end of the growth phase, the bacterial cells were harvested by centrifugation at 5000 rpm for 15 min. The cell pellet was then washed with 0.1 volumes of sterile potassium phosphate buffer 0.1 M, pH 7.5. […] The precursor was used at 0.17 mM final concentration. • Detection reagent DTNB • DTNB (5,5′-Dithio-bis-(2-nitrobenzoic acid; […]
Substance,Ingredient Malodor Inhibition Value (%) (0.0012 w/v % in medium),Ingredient Malodor Inhibition Value (%) (0.0025 w/v % in medium),Ingredient Malodor Inhibition Value (%) (0.006 w/v % in medium),Ingredient Malodor Inhibition Value (%) (0.0125 w/v % in medium),Ingredient Malodor Inhibition Value (%) (0.025 w/v % in medium),Ingredient Malodor Inhibition Value (%) (0.05 w/v % in medium),Ingredient Malodor Inhibition Value (%) (0.1 w/v % in medium),"Ingredient Malodor Inhibition Value (%) (Table 2, 0.0012 w/v % in medium)","Ingredient Malodor Inhibition Value (%) (Table 2, 0.0025 w/v % in medium)","Ingredient Malodor Inhibition Value (%) (Table 2, 0.005 w/v % in medium)","Ingredient Malodor Inhibition Value (%) (Table 2, 0.025 w/v % in medium)","Ingredient Malodor Inhibition Value (%) (Table 2, 0.05 w/v % in medium)"
Terpenyl acetate,0.00,0.00,0.00,0.00,0.00,6.81,00.00,,,,,
Vetyverone,,,,,,,,10.9,10.40,44.6,47.1,54.2
